What was measured:
[1] = Cytotoxicity against […] BSC cells at 5 ug /6 mm disk; format: cell-based
Poliovirus 1 [2] = experiment: Antiviral activity against PV1 infected in […] BSC cells at 5 ug/6 mm disk; format: functional
[3] = Cytotoxicity against […] BSC cells at 20 ug /6 mm disk; format: cell-based
Human alphaherpesvirus 1 [4] = experiment: Antiviral activity against HSV1 infected in […] BSC cells at 20 ug/6 mm disk; format: functional
Poliovirus 1 [5] = experiment: Antiviral activity against PV1 infected in […] BSC cells at 20 ug/6 mm disk; format: functional
Poliovirus 1 [6] = experiment: Antiviral activity against PV1 infected in […] BSC cells at 2 ug/6 mm disk; format: functional
[7] = Cytotoxicity against […] BSC cells at 2 ug /6 mm disk; format: cell-based
Human alphaherpesvirus 1 [8] = experiment: Antiviral activity against HSV1 infected in […] BSC cells at 2 ug/6 mm disk; format: functional

C/C(=C\CCc1ccoc1)CC/C=C(\C)CCCC(C)CC(=O)O (stereo unspecified)
inhibition zone (IZ) [1]: 2 mm
inhibition zone (IZ) (Poliovirus 1 [2]): 2 mm

COC1=C(C)C(=O)O/C1=C\C(C)CCC/C(C)=C/CC/C(C)=C/CCC1(O)C(OC)OC(OC)C1O (mixture of isomers)
inhibition zone (IZ) [3]: 1 mm
inhibition zone (IZ) (Human alphaherpesvirus 1 [4]): 4 mm
inhibition zone (IZ) (Poliovirus 1 [5]): 4 mm

COC1=C(C)C(=O)O/C1=C\C(C)CCC/C(C)=C/CC/C(C)=C/CCC1=CC(O)OC1=O (mixture of isomers)
inhibition zone (IZ) (Poliovirus 1 [6]): 2 mm
inhibition zone (IZ) [3]: 4 mm
inhibition zone (IZ) [7]: 2 mm

COC1=C(C)C(=O)O/C1=C\C(C)CCC/C(C)=C/CC/C(C)=C/CCC1=CC(=O)OC1O (mixture of isomers)
inhibition zone (IZ) (Poliovirus 1 [6]): 2 mm
inhibition zone (IZ) [3]: 2 mm
inhibition zone (IZ) (Human alphaherpesvirus 1 [4]): 4 mm
inhibition zone (IZ) (Poliovirus 1 [5]): 4 mm
inhibition zone (IZ) [7]: 1 mm

CC1=C(O)/C(=C/C(C)CCC/C(C)=C/CC/C(C)=C/CCc2ccoc2)OC1=O (stereo unspecified) [VARIABILIN]
inhibition zone (IZ) (Poliovirus 1 [6]): 4 mm
inhibition zone (IZ) [7]: 1 mm
inhibition zone (IZ) (Human alphaherpesvirus 1 [8]): 4 mm

Reference: ChEMBL document CHEMBL1151132, “Autooxidation Studies on the Marine Sesterterpene Tetronic Acid, Variabilin” (J Nat Prod, 1989)
